Test results as given in patent US20150293106A1, “DIAROMATIC AMINO ACID SUBSTRATE FOR CATHEPSIN DETECTION” (INDUSTRY-ACADEMIC COOPERATION FOUNDATION, YONSEI UNIVERSITY, priority 2012, published 2015).
“Also recorded” adds a separate entry of the source. Marks after values point to notes of the source that are not given here.

What was measured:
[1] = target: T1, cathepsin B (Homo sapiens, UniProt P07858); test: Michaelis-Menten kinetics of hydrolysis by cysteine protease (Table 4); assay type: biochemical; parameters: cathepsins B and L derived from a human liver; purchased Sigma-Aldrich Chemical Co; host or cells: human liver; conditions: average and standard deviation, at least 3 experiments
Method: (§1) The reaction was performed under alkaline conditions.

[2] = target: T2, papain (Carica papaya, UniProt P00784); test: Degree of hydrolysis by protease (Table 3); assay type: biochemical, papaya latex; conditions: after 2 hours; protease 10 μM; substrate 0.2 mM (G1-G3, L1-L3) or 0.1 mM (G4, L4); hydrolysate INH
T2 construct: papain and chymopapain derived from papaya latex; purchased Sigma-Aldrich Chemical Co; host or cells: papaya latex
T2 sequence (P00784 134-345): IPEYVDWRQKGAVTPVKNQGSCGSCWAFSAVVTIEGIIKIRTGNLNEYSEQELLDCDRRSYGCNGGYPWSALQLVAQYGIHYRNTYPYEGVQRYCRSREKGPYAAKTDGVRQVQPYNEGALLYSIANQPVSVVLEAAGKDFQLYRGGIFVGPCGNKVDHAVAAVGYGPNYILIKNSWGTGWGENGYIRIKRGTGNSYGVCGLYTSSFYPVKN
Method: (§2) A hydrolysate was measured using a HPLC system.

[3] = target: T3, chymotrypsin (Bos taurus, UniProt P00766); test: Degree of hydrolysis by protease (Table 3); assay type: biochemical, bovine; conditions: after 2 hours, protease 10 μM, substrate 0.2 mM (G1-G3, L1-L3) or 0.1 mM (G4, L4), n.d. = no hydrolysis was detected, hydrolysate Gly-INH (G), Lys-INH (L1-L3)
T3 construct: chymotrypsin and trypsin derived from fetal bovine pancreas; purchased Sigma-Aldrich Chemical Co; host or cells: bovine pancreas
Method: as §2

[4] = target: thermolysin (Bacillus thermoproteolyticus, UniProt P00800); conditions: after 2 hours; protease 10 μM; substrate 0.2 mM (G1-G3, L1-L3) or 0.1 mM (G4, L4); n.d. = no hydrolysis was detected; hydrolysate INH
Method: For the meaningful comparison of proteases, a hydrolysis reaction was performed under the optimum conditions as reported in other documents (regarding chymotrypsin, subtilisin, thermolysin and pepsin, refer to R. Beynon, J. S. Bond, Proteolytic Enzymes (Second Edition), Oxford University Press, 2001, pp. 295-316; regarding trypsin, proteinase K, carboxy peptidase A, collagenase, dispase, aspergillopepsin, papain, chymopapain, bromelain, cathepsin B, cathepsin L, and cathepsin S, refer to the catalog of Sigma-Aldrich Corporation).
Before the reaction, the mixtures of the reaction buffer solutions and proteases were previously incubated for 30 minutes in a water bath in which the temperature was adjusted to an analysis temperature. The hydrolysis reaction was initiated by adding a substrate dissolved in DMSO. The volume of the added substrate solution was controlled such that the final concentration of DMSO was lower than 1.5% (v/v).
A hydrolysate was measured using a HPLC system. In order to prepare a sample, a hydrolysis reaction was terminated by adding 2% (v/v) 1M HCl with respect to a serine protease, cysteine protease and metalloprotease, and adding 1M NaOH with respect to an aspartic protease. The separation was performed using the mixture of 10 mM-ammonium bicarbonate and acetonitrile as an eluent in C-18 column (particle size: 5 μm, 250 mm×4.6 mm, pore size: 80 Å, Phenomenex, USA). The elution was performed for 15 minutes, while the linear gradient of acetonitrile was increased from 0 to 60%. The flow rate and separation temperature of the eluent were maintained at 1 mL min^−1 and 35° C. The hydrolysate was detected at a wavelength of 254 nm.
Based on the report that a hydrophobic amino acid such as phenylalanine was preferred at a P2 position in most of the papain-like cysteine proteases, Boc-aromatic amino acid-Gly-INH and Boc-aromatic amino acid-Lys-INH were prepared in particular, and experimented as a substrate with respect to chymotrypsin, trypsin, papain, pepsin and thermolysis.

[5] = target: T4, cathepsin L (Homo sapiens, UniProt P07711); test: Michaelis-Menten kinetics of hydrolysis by cysteine protease (Table 4); assay type: biochemical; conditions: average and standard deviation, at least 3 experiments
T4 construct: cathepsins B and L derived from a human liver; purchased Sigma-Aldrich Chemical Co; host or cells: human liver
Method: as §1

[6] = system: other proteases (non-cysteine proteases of the 13-protease panel); test: Protease-catalyzed hydrolysis, restored DBDY fluorescence (selectivity, FIGS. 11-19); assay type: biochemical; conditions: substrate 2.5 μM, protease 0.1 μM, two hours
Method: as §1
(§3) The hydrolysis reaction was performed for two hours. […] Each experiment was repeated at least three times.

[7] = target: T4, cathepsin L; test: Selective hydrolysis by cathepsins, fluorescence (FIG. 20); assay type: biochemical; conditions: substrate 1.0 μM, protease 10 mM, 30 minutes
Method: as §1
(§4) The results of experiments were illustrated in FIG. 20. Since the hydrolysis by cathepsin B was faster than the hydrolyses by papain and chymopapain, the reaction was performed with a substrate (concentration: 1.0 μM) and a protease (concentration: […]) of which the concentrations were set lower than those in Experimental Example 2 (substrate (concentration: 2.5 μM) and protease (concentration: 0.1 μM) reacted for two hours) for 30 minutes in FIG. 20. C1, C2, CB, CL, and CS represented on an X-axis respectively denote papain, chymopapain, cathepsin B, cathepsin L, and cathepsin S. Each experiment was repeated at least three times.

[8] = target: T5, cathepsin S (Homo sapiens, UniProt P25774); test: as above; assay type: biochemical; conditions: substrate 1.0 μM, protease 10 mM, 30 minutes
T5 construct: cathepsin S derived from a human spleen; purchased Sigma-Aldrich Chemical Co; host or cells: human spleen
Method: as §1, §4

[9] = target: T2, papain; test: Michaelis-Menten kinetics of hydrolysis by cysteine protease (Table 4); assay type: biochemical, papaya latex; conditions: average and standard deviation, at least 3 experiments
Method: as §1

[10] = target: T6, chymopapain (Carica papaya, UniProt P14080); test: as above; assay type: biochemical, papaya latex; conditions: average and standard deviation, at least 3 experiments
T6 construct: papain and chymopapain derived from papaya latex; purchased Sigma-Aldrich Chemical Co; host or cells: papaya latex
Method: as §1

[11] = system: cysteine protease (papain, chymopapain, bromelain); test: Protease-catalyzed hydrolysis, restored DBDY fluorescence (selectivity, FIGS. 11-19); assay type: biochemical, papaya latex; pineapple stem; conditions: substrate 2.5 μM, protease 0.1 μM, two hours
Method: as §1, §3

[12] = target: T1, cathepsin B; test: Selective hydrolysis by cathepsins, fluorescence (FIG. 20); assay type: biochemical; parameters: cathepsins B and L derived from a human liver; purchased Sigma-Aldrich Chemical Co; host or cells: human liver; conditions: substrate 1.0 μM, protease 10 mM, 30 minutes
Method: as §1, §4

[13] = target: T7, pepsin (Sus scrofa, UniProt P00791); test: Degree of hydrolysis by protease (Table 3); assay type: biochemical, pig; conditions: after 2 hours; protease 10 μM; substrate 0.2 mM (G1-G3, L1-L3) or 0.1 mM (G4, L4); n.d. = no hydrolysis was detected; hydrolysate INH
T7 construct: pepsin derived from pig gastric mucosa; purchased Sigma-Aldrich Chemical Co; host or cells: pig gastric mucosa
Method: as §2

[14] = target: T8, trypsin (Bos taurus, UniProt P00760); test: Degree of hydrolysis by protease (Table 3); assay type: biochemical, bovine; conditions: after 2 hours; protease 10 μM; substrate 0.2 mM (G1-G3, L1-L3) or 0.1 mM (G4, L4); n.d. = no hydrolysis was detected; hydrolysate INH
T8 construct: chymotrypsin and trypsin derived from fetal bovine pancreas; purchased Sigma-Aldrich Chemical Co; host or cells: bovine pancreas
T8 sequence (P00760 24-246): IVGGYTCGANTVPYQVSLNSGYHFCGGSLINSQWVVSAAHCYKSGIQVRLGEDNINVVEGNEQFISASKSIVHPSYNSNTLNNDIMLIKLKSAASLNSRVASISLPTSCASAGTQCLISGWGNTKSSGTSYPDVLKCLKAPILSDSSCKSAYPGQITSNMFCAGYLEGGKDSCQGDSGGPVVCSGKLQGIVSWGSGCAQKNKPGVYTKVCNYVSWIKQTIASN
Method: as §2

[15] = target: T8, trypsin; test: Protease-catalyzed hydrolysis, restored DBDY fluorescence (selectivity, FIGS. 11-19); assay type: biochemical, bovine; conditions: substrate 2.5 μM, protease 0.1 μM, two hours
Method: as §1, §3

T6 sequence (P14080 135-352): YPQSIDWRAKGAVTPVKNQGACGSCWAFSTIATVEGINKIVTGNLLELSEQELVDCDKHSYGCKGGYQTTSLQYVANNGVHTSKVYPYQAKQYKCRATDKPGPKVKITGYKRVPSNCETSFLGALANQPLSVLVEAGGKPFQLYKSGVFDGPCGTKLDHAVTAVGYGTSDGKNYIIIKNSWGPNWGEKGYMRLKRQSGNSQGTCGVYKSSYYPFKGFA
T4 sequence (P07711 114-333): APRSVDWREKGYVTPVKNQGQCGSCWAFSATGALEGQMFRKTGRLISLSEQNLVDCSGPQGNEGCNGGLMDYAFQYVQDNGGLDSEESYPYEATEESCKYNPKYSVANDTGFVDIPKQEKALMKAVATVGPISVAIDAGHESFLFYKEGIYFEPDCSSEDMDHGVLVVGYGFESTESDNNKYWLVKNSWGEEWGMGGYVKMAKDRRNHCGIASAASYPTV
T5 sequence (P25774 115-331): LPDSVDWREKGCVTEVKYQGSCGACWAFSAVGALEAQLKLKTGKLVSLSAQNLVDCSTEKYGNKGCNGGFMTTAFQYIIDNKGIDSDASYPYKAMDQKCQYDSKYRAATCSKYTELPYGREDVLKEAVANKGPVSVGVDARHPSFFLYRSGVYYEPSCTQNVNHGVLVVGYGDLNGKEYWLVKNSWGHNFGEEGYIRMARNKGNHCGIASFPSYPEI
T7 sequence (P00791 60-385): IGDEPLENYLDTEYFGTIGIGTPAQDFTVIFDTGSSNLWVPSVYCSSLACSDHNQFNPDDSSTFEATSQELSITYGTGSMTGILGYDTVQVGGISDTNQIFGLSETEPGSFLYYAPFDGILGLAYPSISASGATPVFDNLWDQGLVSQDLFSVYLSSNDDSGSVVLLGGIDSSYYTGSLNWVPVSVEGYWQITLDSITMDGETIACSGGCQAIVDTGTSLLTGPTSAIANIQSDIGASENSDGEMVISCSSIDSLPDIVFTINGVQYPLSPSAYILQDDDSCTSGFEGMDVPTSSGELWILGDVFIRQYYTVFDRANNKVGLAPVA
thermolysin, sequence (P00800 233-548): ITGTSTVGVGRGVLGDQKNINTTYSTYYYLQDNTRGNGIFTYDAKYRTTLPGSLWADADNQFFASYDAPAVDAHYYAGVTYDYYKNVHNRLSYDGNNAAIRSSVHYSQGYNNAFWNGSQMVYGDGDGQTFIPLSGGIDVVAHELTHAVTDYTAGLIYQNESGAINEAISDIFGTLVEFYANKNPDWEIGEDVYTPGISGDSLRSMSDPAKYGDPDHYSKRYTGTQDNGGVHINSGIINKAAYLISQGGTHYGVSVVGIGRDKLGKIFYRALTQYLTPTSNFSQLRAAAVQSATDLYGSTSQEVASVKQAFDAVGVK

Structure (SMILES) | Kcat [1] [s⁻¹] | Km [1] [µM] | degree of hydrolysis by Papain [2] [%] | degree of hydrolysis by Chymotrypsin [3] | degree of hydrolysis by Thermolysin [4] [%] | Kcat [5] [s⁻¹] | Km [5] [µM] | hydrolysis by other (non-cysteine) proteases [6] | hydrolysis by cathepsin L [7] | hydrolysis by cathepsin S [8] | Kcat [9] [s⁻¹] | Km [9] [µM] | Kcat [10] [s⁻¹] | Km [10] [µM] | hydrolysis by cysteine proteases (increased fluorescence) [11] | hydrolysis by cathepsin B [12] | degree of hydrolysis by Pepsin [13] [%] | degree of hydrolysis by Trypsin [14] [%] | degree of hydrolysis by Chymotrypsin ([3]; listed as DBDY-(Lys-INH)2) | hydrolysis by trypsin (increased fluorescence) [15]
CC(C)(C)OC(=O)NC(Cc1ccc(O)c(-c2cc(CC(NC(=O)OC(C)(C)C)C(=O)NCC(=O)NNC(=O)c3ccncc3)ccc2O)c1)C(=O)NCC(=O)NNC(=O)c1ccncc1 (centres unmarked) [Substrate G4, DBDY-(Gly-INH)2] | 0.0112 ± 0.001 | 2.88 | 62.2 ± 2.1 | hardly hydrolyzed | 0.74 ± 0.03 | 0.0015 ± 0.00033 | 12.9 ± 3.69 | no hydrolysis by other proteases | hydrolyzed only by cathepsin B | not hydrolyzed | 0.0257 ± 0.005 | 7.72 ± 1.25 | 0.00567 ± 0.0005 | 4 ± 0.25 | showed sensitivity and selectivity for the cysteine protease; also recorded: selectivity for cysteine proteases | hydrolyzed only by cathepsin B | 2.98 ± 0.07 | – | – | –
CC(C)(C)OC(=O)NC(Cc1ccc(O)c(-c2cc(CC(NC(=O)OC(C)(C)C)C(=O)NC(CCCCN)C(=O)NNC(=O)c3ccncc3)ccc2O)c1)C(=O)NC(CCCCN)C(=O)NNC(=O)c1ccncc1 (centres unmarked) [Substrate L4, DBDY-(Lys-INH)2] | 0.0362 ± 0.0025 | 2.01 ± 0.05 | 44.9 ± 2.8 | 7.15 ± 0.47 ^c % | – | 0.00333 ± 0.00017 | 1.17 ± 0.09 | – | hydrolyzed | not hydrolyzed | 0.0173 ± 0.00183 | 7.2 ± 0.8 | 0.0005 ± 0.00017 | 2.2 ± 0.28 | hydrolyzed; also recorded: selectivity for cysteine proteases | hydrolyzed | 1.04 ± 0.03 | 46.8 ± 1.7 | hardly hydrolyzed | hydrolyzed; also recorded: slightly hydrolyzed
